Converted amounts (≈) assume the structure as drawn.
Assays:
Mtb H37Rv WT = assay: microbe, parasite or virus in culture; assay type: cell-based; settings: Mycobacterium tuberculosis
MtbAdoK [1] = molecular target: T1, MtbAdoK (Mycobacterium tuberculosis, UniProt P9WID5); assay: MtbAdoK enzymatic assay (pyruvate kinase–lactate dehydrogenase coupled), IC50 and Ki determination; assay type: biochemical; settings: Cheng–Prusoff for competitive inhibition; 15.0 μM adenosine; ± SD of 2 experiments
hAdoK = molecular target: T2, hAdoK (Homo sapiens, UniProt P55263); assay: hAdoK enzymatic assay (pyruvate kinase–lactate dehydrogenase coupled), Ki determination; assay type: biochemical
T2 construct: His-tag with Tobacco Etch Virus (TEV) cleavage site (N); made in house; host or cells: Escherichia coli BL21 (DE3)
T2 sequence (P55263 1-345 isoform P55263-2): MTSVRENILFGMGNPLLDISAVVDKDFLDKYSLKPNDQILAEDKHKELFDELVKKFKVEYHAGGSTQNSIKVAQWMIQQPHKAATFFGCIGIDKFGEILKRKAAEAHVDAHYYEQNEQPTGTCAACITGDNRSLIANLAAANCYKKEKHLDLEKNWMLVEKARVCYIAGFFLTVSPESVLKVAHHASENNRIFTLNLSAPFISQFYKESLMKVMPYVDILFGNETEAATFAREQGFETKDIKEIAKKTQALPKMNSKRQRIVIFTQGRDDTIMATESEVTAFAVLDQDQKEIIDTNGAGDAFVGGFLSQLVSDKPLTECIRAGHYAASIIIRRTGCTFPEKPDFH

Mtb mc^2 7000 = assay: Antimycobacterial assay (MABA); assay type: cell-based; settings: Mycobacterium tuberculosis, Mtb mc^2 7000, MABA, 6 days + 2 days resazurin
[2] = system: human dermal fibroblasts (HDF); assay: in vitro; assay type: cell-based; settings: HDF cells
Procedure: HDFs were purchased from ATCC (Manassas, VA). HDF cells were cultured in DMEM (Lonza) media supplemented with 10.0% fetal bovine serum (Lonza) and penicillin/streptomycin (Lonza). For the cytotoxicity assay, compound stocks were serially diluted in phosphate-buffered saline plus 10.0% DMSO. On the day of assay, HDF cells were trypsinized, counted, and resuspended at a concentration of 64 000 cells/mL in media. Cells were plated, overlaid with the compound serial dilutions, and incubated at 37.0 °C. After 48.0 h, resazurin dye was added, and the assay plates cultured for another 24.0 h. On the next day, the absorbance of the resazurin was measured on a microplate reader to assess cell death. Cytotoxicity was determined as a percent control, and CC50 values for each compound were determined by utilizing eq 1.

in vivo = assay: in vivo; set-up: species or system Swiss Webster mice; settings: female, ND4 Swiss Webster, mouse, po
Procedure: (§1) Eight-week old female ND4 Swiss Webster mice (∼28 g each) (Envigo, Indianapolis, IN) were used for PK and combination tolerability-snapshot PK studies. Compound 18 was formulated in 5% DMSO, 95% canola oil and administered as a single 100 μL oral gavage at 10 mg·kg^–1 for PK and as a 200 μL oral gavage at 50, 100, or 200 mg·kg^–1 QD × 3 days for tolerability-snapshot PK. Mice were anesthetized using isoflurane and 50 μL collected at 0, 0.25, 0.5, 1, 2, and 4 h survival bleed times for traditional PK or 0, 1, 4, and 24 h for tolerability-snapshot PK studies after the first administered dose. Around 200 μL was collected at 6, 8, and 24 h terminal bleed times for the traditional PK. Survival bleeds were drawn from the facial vein and terminal bleeds via cardiac puncture following CO2 asphyxiation.[35] Three mice were used per time point.
Blood samples were centrifuged (3000g, 15 min) for plasma separation. Aliquots of plasma (10 μL) were extracted with two 500 μL equivalents of methanol containing 0.1% formic acid to ensure maximum recovery of compound 18 from plasma. The supernatant was collected from precipitated protein pellet following centrifugation (3000g, 5 min) and evaporated to dryness using a temperature-controlled Eppendorf Vacufuge at 30 °C for 4 h. The dry samples were reconstituted with 100 μL of methanol (1:10 original analyte dilution factor) spiked with 250 ng·mL^–1 verapamil (Sigma-Aldrich) as an internal standard and subjected to LC/MS analysis on a Bruker Daltronics micrOTOF-Q II mass spectrometer coupled with an Agilent 1200 Infinity series HPLC with temperature controlled autosampler (24 °C) and photodiode array detector. Standard solutions of compound 18 ranging from 1000 to 7.8125 ng·mL^–1 spiked into mouse control plasma was also analyzed to generate a calibration curve corrected for matrix effects. A linear regression generated from calibration samples was used to quantify samples.[34] The LOD of the LC/MS method was approximately 2 ng·mL^–1. A 4.6 × 100 mm Kinetex 2.6 μm EVO C18 100 Å column at a flow rate of 0.5 mL·min^–1 was used in the analysis. The mobile phase consisted of water containing 0.1% formic acid as solvent A and acetonitrile with 0.1% formic acid as solvent B. The gradient conditions were maintained as follows: 90% A, 10% B to 100% B in 8 min; 100% held for 4 min as a washing step; 100% B back to 90% A in 2 min; 90% A, 10% B held for 3 min to reset and equilibrate the column. Each analytical run was automatically calibrated using a secondary line injection of 10 μL of sodium acetate external standard at 13 min. The injection volume of the analyte was 10 μL, and MS was operated in positive mode with electrospray ionization at source. Mass spectra were monitored in a range of 50–1000m/z. Data were processed using DataAnalysis 4.1 and QuantAnalysis (Bruker Daltronics).

[3] = assay type: in vivo; settings: female Swiss Webster mice, single oral dose 10 mg·kg^–1
Procedure: as §1

MtbAdoK [4] = molecular target: T1, MtbAdoK; assay: Steady-state kinetics of MtbAdoK; settings: versus adenosine
MtbAdoK [5] = molecular target: T1, MtbAdoK; settings: read-out: Km for adenosine, previously reported values; cited from earlier work

T1 sequence (P9WID5 whole entry, looked up): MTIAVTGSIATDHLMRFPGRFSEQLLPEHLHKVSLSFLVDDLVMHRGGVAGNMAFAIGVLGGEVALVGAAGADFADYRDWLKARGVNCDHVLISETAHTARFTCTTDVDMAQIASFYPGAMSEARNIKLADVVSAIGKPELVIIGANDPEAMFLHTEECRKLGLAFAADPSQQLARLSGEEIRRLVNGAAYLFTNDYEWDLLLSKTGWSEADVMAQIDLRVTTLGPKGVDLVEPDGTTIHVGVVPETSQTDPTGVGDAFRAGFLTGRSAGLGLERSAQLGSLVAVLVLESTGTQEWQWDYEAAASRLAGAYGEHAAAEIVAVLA

## Nc1ncnc2c1c(I)cn2[C@@H]1O[C@H](CO)[C@@H](O)[C@H]1O [Compound 2, Iodotubercidin]
Mtb H37Rv WT
  MIC: 18 ± 10 µM (≈ 7.06 µg/mL)

## OC[C@H]1O[C@@H](n2cnc3c(N4CCN(c5ccc(-c6ccccc6)cc5)CC4)ncnc32)[C@H](O)[C@@H]1O [Compound 18, (2R,3R,4S,5R)-2-(6-(4-([1,1′-Biphenyl]-4-yl)piperazin-1-yl)-9H-purin-9-yl)-5-(hydroxymethyl)tetrahydrofuran-3,4-diol]
MtbAdoK [1]
  Ki: 0.0053 ± 7e-05 µM
hAdoK
  activity against hAdoK (in words): no activity against hAdoK
hAdoK; Cheng–Prusoff, ± SD of 2 experiments
  Ki: > 50 µM
Mtb mc^2 7000; 192 h
  EC50: ~4 µM
Mtb mc^2 7000
  EC50: 4 ± 0.2 µM
[2]
  cytotoxicity (in words): no cytotoxicity
In vivo; 10 mg/kg
  AUC(0-t): 1800 ng·h/mL
  Cmax: 130 ± 20 ng/mL
  Tmax: ~4 h
In vivo; 50 mg/kg
  AUC: 9800 ng·h/mL
  Tmax: ~4 h
In vivo; 100 mg/kg
  AUC: 15300 ng·h/mL
  Tmax: ~4 h
In vivo; 200 mg/kg
  AUC: 23200 ng·h/mL
  Tmax: ~4 h
[3]
  tolerability: well tolerated
MtbAdoK [4]
  mode of inhibition: competitive

## Nc1ncnc2c1ncn2[C@@H]1O[C@H](CO)[C@@H](O)[C@H]1O [Compound 1, adenosine]
MtbAdoK [5]
  Km: 0.8 to 3.4 µM

Source: PMC6511943, “Structure-Guided Drug Design of 6-Substituted Adenosine Analogues as Potent Inhibitors of Mycobacterium tuberculosis Adenosine Kinase” (Journal of Medicinal Chemistry, 2019)
